In patent publication US10981932B2, “Macrocyclic indole derivatives” (Bayer Aktiengesellschaft, priority 2016, dated 2021):
Where “and” joins values, the source holds several entries; their conditions need not be identical. Identical values can stand only once. Counter-ions that a name gives are not always drawn. Like-named read-outs stand apart in the source and are kept apart here.

Tests used:
[1] = tested on: SUDHL10; assay: Induction of cytotoxicity (CellTiter-Glo, 5 h), SUDHL10
[2] = tested on: SUDHL10; assay: Induction of caspase-3/7 activity (Caspase-Glo 3/7), SUDHL10; type: cell-based; settings: caspase-3/7 induction, SUDHL10 cells, 3 h treatment, median
How it was run: (§1)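 DLBCL cells treated with compounds for 3 h at 37 °C, then caspase-3/7 activity read by Caspase-Glo 3/7 luminescence. Medium-only background subtracted; EC50 fitted with C0 fixed at 1 and top set to the reference compound's maximal induction.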

[3] = molecular target: MCL-1 (Homo sapiens, UniProt Q07820); assay: Protein-protein interaction assay MCL-1/Noxa BH3 peptide (MCL-1 assay), TR-FRET; type: binding; settings: MBP-MCL-1 / Noxa BH3-derived peptide, median
How it was run: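 TR-FRET, 665/622 nm emission ratio (excitation 330–350 nm), measured MCL-1/Noxa complex formation. 1 nM MBP-MCL-1, 50 mM Tris/HCl pH 7, 0.1% BGG, 2 mM DTT. Incubation 1 h at 22 °C, then overnight at 4 °C. IC50 by 4-parameter regression, normalized to DMSO (0%) and no-MCL-1 (100%) controls.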

[4] = tested on: SUDHL5; assay: Induction of caspase-3/7 activity (Caspase-Glo 3/7), SUDHL5; type: cell-based; settings: caspase-3/7 induction, SUDHL5 cells, 3 h treatment, median
How it was run: as §1

[5] = tested on: A2780; assay: Anti-proliferative effect (CellTiter-Glo, 72 h), A2780; type: cell-based; settings: A2780 cells, median, read-out: IC50 antiproliferation assay A2780 [M] (median)
How it was run: (§2)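 A time zero plate, read with CellTiter-Glo shortly after seeding, served as baseline; compound-treated plates were incubated 72 h at 37 °C and then read identically by luminescence.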

[6] = tested on: SUDHL5; assay: Induction of cytotoxicity (CellTiter-Glo, 5 h), SUDHL5
[7] = tested on: SUDHL5; assay: Anti-proliferative effect (CellTiter-Glo, 72 h), SUDHL5; type: cell-based; settings: SUDHL5 cells, antiproliferation, median, read-out: Antiproli SUDHL5 [M] (median)
How it was run: as §2

[8] = tested on: MV-4-11; assay: Anti-proliferative effect (CellTiter-Glo, 72 h), MV-4-11; type: cell-based; settings: MV-4-11 cells, median, read-out: IC50 antiproliferation assay MV-4-11 [M] (median)
How it was run: as §2

[9] = Homo sapiens, SU-DHL10, 5 h, read-out: Cytotox SUDHL10 [M] (median), SUDHL10 cells, cytotoxicity induction, CellTiter-Glo, 5 h, median
[10] = Homo sapiens, SU-DHL-5, 5 h, read-out: Cytotox SUDHL5 [M] (median), SUDHL5 cells, cytotoxicity induction, CellTiter-Glo, 5 h, median
[11] = Homo sapiens, SU-DHL-5, 72 h, 72 h
[12] = read-out: Cytotox SUDHL10 [M] (median), SUDHL10 cells, cytotoxicity induction, CellTiter-Glo, 5 h incubation, median
[13] = read-out: Cytotox SUDHL5 [M] (median), SUDHL5 cells, cytotoxicity induction, CellTiter-Glo, 5 h incubation, median

Chain of MCL-1 (Q07820 whole entry): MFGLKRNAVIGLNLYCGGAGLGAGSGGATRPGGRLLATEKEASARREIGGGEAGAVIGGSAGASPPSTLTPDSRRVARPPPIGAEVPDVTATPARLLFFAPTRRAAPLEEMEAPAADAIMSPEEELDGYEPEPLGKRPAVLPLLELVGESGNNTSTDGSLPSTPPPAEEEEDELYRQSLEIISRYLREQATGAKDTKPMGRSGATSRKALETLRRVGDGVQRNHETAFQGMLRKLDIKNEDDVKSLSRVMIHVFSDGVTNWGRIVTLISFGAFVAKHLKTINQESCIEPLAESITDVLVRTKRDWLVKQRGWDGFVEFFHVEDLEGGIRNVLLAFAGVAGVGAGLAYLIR

In the case of `Cc1ccc2c(OCCCc3c(C(=O)O)n4c5c(cccc35)-c3c(nn(C)c3C)COCCCC4)cccc2c1` (racemic) [Example 307, (rac)-11,12-dimethyl-1-(3-((6-methylnaphthalen-1-yl)oxy)propyl)-4,5,6,7,9,11-hexahydropyrazolo[4′,3′:9,10][1,6]oxaazacycloundecino[8,7,6-hi]indole-2-carboxylic Acid], the IC50 [1, 9] is reported as greater than 3.3e-05 M, the EC50 ([2]; Homo sapiens, SU-DHL10, 3 h) is reported as greater than 33 µM and the IC50 [3] is reported as 0.0129 µM. It also gave an EC50 ([4]; Homo sapiens, SU-DHL-5, 3 h) greater than 33 µM, an IC50 ([5]; Homo sapiens, A2780, 72 h) of 1.76e-05 M and an IC50 [6, 10] greater than 3.3e-05 M. It also gave an IC50 [7, 11] of 1.19e-05 M and an IC50 ([8]; Homo sapiens, MV4-11, 72 h) of 1.84e-05 M.

`COc1ccc2c(CCCOc3cccc4ccccc34)c(C(=O)O)n3c2c1-c1c(nn(C)c1C)COCCCC3` (single isomer, unassigned; enantiomer 1) [Example 350, 4-methoxy-2,3-dimethyl-7-[3-(naphthalen-1-yloxy)propyl]-2,10,11,12,13,15-hexahydropyrazolo[4′,3′:9,10][1,6]oxazacycloundecino[8,7,6-hi]indole-8-carboxylic acid-N-ethylethanamine Salt (Enantiomer 1)] gave an IC50 [1, 9] of 3.11e-05 M, an IC50 ([1]; read-out: Cytotox SUDHL10 [M] (median), SUDHL10 cells, cytotoxicity induction, CellTiter-Glo, 5 h, median) greater than 3.3e-05 M and an EC50 ([2]; Homo sapiens, SU-DHL10, 3 h) greater than 33 µM. It also gave an IC50 [3] of 0.0563 µM, an EC50 ([4]; Homo sapiens, SU-DHL-5, 3 h) of 24.3 µM and an EC50 [4] greater than 33 µM. The IC50 ([5]; Homo sapiens, A2780, 72 h) was greater than 3.3e-05 M, the IC50 [6, 10] was 2.07e-05 M and the IC50 [7, 11] was 1.38e-05 M. For the same compound, the IC50 [8] was 1.53e-05 M.

In the case of `Cc1c2c(nn1C)COCCCCn1c(C(=O)O)c(CCCOc3cccc4cc(Cl)ccc34)c3cccc-2c31` (single isomer, unassigned) [Example 296, (+)-7-{3-[(6-chloronaphthalen-1-yl)oxy]propyl}-2,3-dimethyl-2,10,11,12,13,15-hexahydropyrazolo[4′,3′:9,10][1,6]Oxazacycloundecino[8,7,6-hi]indole-8-carboxylic acid-N-ethylethanamine Salt], the IC50 [1, 9] is reported as 1.43e-05 M, the EC50 ([2]; Homo sapiens, SU-DHL10, 3 h) is reported as 18.7 µM and the IC50 [3] is reported as 0.00331 µM. For the same compound, the EC50 [4] was 3.23 µM, the IC50 ([5]; Homo sapiens, A2780, 72 h) was 2.07e-05 M and the IC50 ([6]; read-out: Cytotox SUDHL5 [M] (median), SUDHL5 cells, cytotoxicity induction, CellTiter-Glo, 5 h, median) was 5.31e-06 M. It also gave an IC50 [7, 11] of 5.2e-06 M and an IC50 ([8]; Homo sapiens, MV4-11, 72 h) of 1.52e-05 M.

`Cc1ccc2c(C(C)CCOc3cccc4cc(F)ccc34)c(C(=O)O)n3c2c1-c1c(nn(C)c1C)COCCCC3` (single isomer, unassigned) [Example 280, 7-{4-[(6-fluoronaphthalen-1-yl)oxy]butan-2-yl}-2,3,4-trimethyl-2,10,11,12,13,15-hexahydropyrazolo[4′3′:9,10][1,6]oxazacycloundecino[8,7,6-hi]indole-carboxylic Acid] showed an IC50 [1, 12] of 3.07e-05 M, an EC50 [2] of 32.4 µM and an IC50 [3] of 0.194 µM. The EC50 [4] was greater than 33 µM, the IC50 [5] was 8.02e-06 M and the IC50 [6, 13] was greater than 3.3e-05 M. It also gave an IC50 ([7]; 72 h incubation) of 1.18e-05 M and an IC50 [8] of 1.11e-05 M.

`O=C(O)c1c(CCCOc2cccc3ccccc23)c2cccc3c2n1CCCCOCc1nn2c(c1-3)CCCC2` (single isomer, unassigned) [Example 255, 1-[3-(naphthalen-1-yloxy)propyl]-4,5,6,7,12,13,14,15-octahydro-9H-pyrido[1″,2″:1′,5′]pyrazolo[4′,3′:9,10][1,6]oxazacycloundecino[8,7,6-hi]indole-2-carboxylic Acid] showed an IC50 [1, 12] of 3.28e-05 M, an EC50 [2] greater than 33 µM and an IC50 [3] of 0.067 µM. It also gave an EC50 [4] greater than 33 µM, an IC50 [5] of 2.48e-05 M and an IC50 [6, 13] greater than 3.3e-05 M. The IC50 ([7]; 72 h incubation) was 1.39e-05 M and the IC50 [8] was 1.31e-05 M.

Compound `Cn1nc(CC(F)(F)F)c2c1COCCCCn1c(C(=O)O)c(CCCOc3cccc4ccccc34)c3cccc-2c31` (single isomer, unassigned) [Example 220, 1-methyl-7-[3-(naphthalen-1-yloxy)propyl]-3-(2,2,2-trifluoroethyl)-1,10,11,12,13,15-hexahydropyrazo[4′,3′:9,10][1,6]oxazacycloundecino[8,7,6-hi]indole-8-carboxylic acid-N-ethylethanamine Salt] has an IC50 ([1]; Homo sapiens, SU-DHL10, 5 h, read-out: Cytotox SUDHL10 [M] (median), SUDHL10 cells, cytotoxicity induction, CellTiter-Glo, 5 h incubation, median) greater than 3.3e-05 M, an EC50 ([2]; Homo sapiens, SU-DHL10, 3 h) of 22.4 µM and an EC50 [2] greater than 33 µM. It also gave an IC50 [3] of 0.00323 µM, an EC50 [4] of 10.1 µM and an IC50 ([5]; Homo sapiens, A2780, 72 h) greater than 3.3e-05 M. The IC50 [6, 13] was 9.69e-06 M, the IC50 ([7]; Homo sapiens, SU-DHL-5, 72 h, 72 h incubation) was 1.05e-05 M and the IC50 ([8]; Homo sapiens, MV4-11, 72 h) was 2.27e-05 M.

`CCc1c2c(nn1C)COCCCCn1c(C(=O)O)c(CCCOc3cccc4c3CCCC4)c3cccc-2c31` (racemic) [Example 290, (rac)-12-ethyl-11-methyl-1-(3-((5,6,7,8-tetrahydronaphthalen-1-yl)oxy)propyl)-4,5,6,7,9,11-hexahydropyrazolo[4′,3′:9,10][1]oxa[6]azacycloundecino[8,7,6-hi]indole-2-carboxylic Acid] gave an IC50 [1, 9] of 1.19e-05 M, an EC50 ([2]; Homo sapiens, SU-DHL10, 3 h) of 13.6 µM and an IC50 [3] of 0.0028 µM. It also gave an EC50 ([4]; Homo sapiens, SU-DHL-5, 3 h) of 3.38 µM, an IC50 [5] of 2.62e-05 M and an IC50 ([5]; Homo sapiens, A2780, 72 h) greater than 3.3e-05 M. For the same compound, the IC50 [6, 10] was 3.61e-06 M, the IC50 [7, 11] was 5.06e-06 M and the IC50 ([8]; Homo sapiens, MV4-11, 72 h) was 9.57e-06 M.

Compound `Cn1nc(COC2CC2)c2c1COCCCCn1c(C(=O)O)c(CCCOc3cccc4ccccc34)c3cccc-2c31` (single isomer, unassigned) [Example 215, 3-[(cyclopropyloxy)methyl]-1-methyl-7-[3-(naphthalen-1-yloxy)propyl]-1,10,11,12,13,15-hexahydropyrazolo[4′,3′:9,10][1,6]oxazacycloundecino[8,7,6-hi]indole-8-carboxylic Acid] has an IC50 [1, 12] greater than 3.3e-05 M, an EC50 [2] greater than 33 µM and an IC50 [3] of 0.182 µM. For the same compound, the EC50 [4] was greater than 33 µM, the IC50 [5] was greater than 3.3e-05 M and the IC50 [6, 13] was greater than 3.3e-05 M. It also gave an IC50 ([7]; 72 h incubation) of 1.48e-05 M and an IC50 [8] of 2.33e-05 M.

For `CCc1nn(C)c2c1-c1c(C)ccc3c(C(C)CCOc4cccc5ccccc45)c(C(=O)O)n(c13)CCCCOC2` (single isomer, unassigned) [Example 274, 3-ethyl-1,4-dimethyl-7-[4-(naphthalen-1-yloxy)butan-2-yl]-1,10,11,12,13,15-hexahydropyrazolo[4′,3′:9,10][1,6]oxazacycloundecino[8,7,6-hi]indole-8-carboxylic Acid], the IC50 [1, 12] was greater than 3.3e-05 M, the EC50 [2] was 31.7 µM and the IC50 [3] was 1.56 µM. For the same compound, the EC50 [4] was greater than 33 µM, the IC50 [5] was 1.17e-05 M and the IC50 [6, 13] was greater than 3.3e-05 M. For the same compound, the IC50 ([7]; 72 h incubation) was 3.93e-06 M and the IC50 [8] was 8.02e-06 M.

`CCc1c2c(nn1C)COCCCCn1c(C(=O)O)c(CCCOc3cccc4cc(F)ccc34)c3cccc-2c31` (single isomer, unassigned) [Example 283] was tested, and the IC50 [1, 12] was 3.05e-05 M, the EC50 [2] was greater than 33 µM and the IC50 [3] was 0.0444 µM. For the same compound, the EC50 [4] was 30.7 µM and > 33 µM, the IC50 [5] was 1.5e-05 M and the IC50 [6, 13] was 2.17e-05 M. The IC50 ([7]; 72 h incubation) was 8.33e-06 M and the IC50 [8] was 1.46e-05 M.

`Cc1c2c(nn1C)COCCCCn1c(C(=O)O)c(CCCOc3cccc4cc(F)ccc34)c3cccc-2c31` (racemic) [Example 301, (rac)-7-{3-[(6-fluoronaphthalen-1-yl)oxy]propyl}-2,3-dimethyl-2,10,11,12,13,15-hexahydropyrazolo[4′,3′:9,10][1,6]oxazacycloundecino[8,7,6-hi]indole-8-carboxylic Acid] was tested, and the IC50 [1, 9] was 3.5e-06 M, the EC50 ([2]; Homo sapiens, SU-DHL10, 3 h) was 3.29 µM and the IC50 [3] was 0.00143 µM. It also gave an EC50 ([4]; Homo sapiens, SU-DHL-5, 3 h) of 1.19 µM, an IC50 ([5]; Homo sapiens, A2780, 72 h) of 1.56e-05 M and an IC50 [6, 10] of 1.6e-06 M. For the same compound, the IC50 [7, 11] was 2e-06 M and the IC50 ([8]; Homo sapiens, MV4-11, 72 h) was 5.99e-06 M.

In the case of `COCCn1nc(C2CC2)c2c1COCCCCn1c(C(=O)O)c(CCCOc3cccc4c3CCCC4)c3cccc-2c31` (single isomer, unassigned; enantiomer 2) [Example 166, 3-Cyclopropyl-1-(2-methoxyethyl)-7-[3-(5,6,7,8-tetrahydronaphthalen-1-yloxy)propyl]-1,10,11,12,13,15-hexahydropyrazolo[4′,3′:9,10][1,6]oxazacycloundecino[8,7,6-hi]indole-8-carboxylic acid-N-ethylethanamine Salt (Enantiomer 2)], the IC50 [1, 12] is reported as greater than 3.3e-05 M, the EC50 [2] is reported as greater than 33 µM and the IC50 [3] is reported as 0.041 µM. For the same compound, the EC50 [4] was 30.7 µM, the IC50 [5] was 2.82e-05 M and the IC50 [6, 13] was 2.81e-05 M. For the same compound, the IC50 ([7]; 72 h incubation) was 1.26e-05 M and the IC50 [8] was 1.88e-05 M.
